Assay results as given in patent US20250145633A1, “SUBSTITUTED FURANOPYRIMIDINE COMPOUNDS AS PDE1 INHIBITORS” (Dart NeuroScience, LLC, priority 2017, published 2025).

target: human PDE1B enzyme (Homo sapiens (Human), UniProt Q01064); experiment: IMAP TR-FRET PDE1B enzymatic assay; assay type: biochemical; conditions: negative log of half-maximal molar inhibitory concentration; 200 nM FAM-cAMP; values given as bins
Method in brief: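 Full-length GST-tagged human PDE1B (250 pg/well) in IMAP BSA buffer with 10 U/ml calmodulin and 2.5 mM CaCl2; compound pre-incubated 5 min at room temperature, then 200 nM (final) FAM-cAMP for 30 min. IMAP binding reagent/Tb added, 1 h; TR-FRET 520/490 ratio read. IC50 from sigmoidal dose-response fit.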

Row | SMILES | PDE1b (pIC50)
1 | Cc1oc2ncnc(NC3(C)CC3)c2c1C(=O)N1CCN(c2ccccn2)CC1 [Example 42, 6-Methyl-N-(1-methylcyclopropyl)-5-[4-(pyridin-2-yl)piperazine-1-carbonyl]furo[2,3-d]pyrimidin-4-amine] | >8
2 | Cc1oc2ncnc(NC3(C)CC3)c2c1C(=O)N1CCC(O)(c2ccc(F)cc2)C1 (stereo not shown) [Example 67, 3-(4-Fluorophenyl)-1-{6-methyl-4-[(1-methylcyclopropyl)amino]furo[2,3-d]pyrimidine-5-carbonyl}pyrrolidin-3-ol] | >8
3 | COc1ccc(CNC(=O)c2c(C)oc3ncnc(NC4(C)CC4)c23)cc1Cl [Example 488, N-[(3-Chloro-4-methoxyphenyl)methyl]-6-methyl-4-[(1-methylcyclopropyl)amino]furo[2,3-d]pyrimidine-5-carboxamide] | >8
4 | Cc1oc2ncnc(NC3(C)CC3)c2c1C(=O)N1CCC(c2cc(C)n(C)n2)CC1 [Example 779, 5-[4-(1,5-Dimethyl-1H-pyrazol-3-yl)piperidine-1-carbonyl]-6-methyl-N-(1-methylcyclopropyl)furo[2,3-d]pyrimidin-4-amine] | >8
5 | Cc1oc2ncnc(NC3(C)CC3)c2c1C(=O)N1CCc2c(OCF)ccnc2C1 [Example 763, 5-[4-(Fluoromethoxy)-5,6,7,8-tetrahydro-1,7-naphthyridine-7-carbonyl]-6-methyl-N-(1-methylcyclopropyl)furo[2,3-d]pyrimidin-4-amine] | >8
6 | Cc1oc2ncnc(NC3(C)CC3)c2c1C(=O)NCc1noc(C2CC2)n1 [Example 464, N-[(5-Cyclopropyl-1,2,4-oxadiazol-3-yl)methyl]-6-methyl-4-[(1-methylcyclopropyl)amino]furo[2,3-d]pyrimidine-5-carboxamide] | >8
7 | Cc1oc2ncnc(NC3(C)CC3)c2c1C(=O)N1CC(c2ccc(F)cc2)C1 [Example 56, 5-[3-(4-Fluorophenyl)azetidine-1-carbonyl]-6-methyl-N-(1-methylcyclopropyl)furo[2,3-d]pyrimidin-4-amine] | >8

same assay, conditions: negative log of half-maximal molar inhibitory concentration; 200 nM FAM-cAMP; values given as bins; read-out: PDE1b (pIC50) (converted)

Row | SMILES | IC50
8 | Cc1oc2ncnc(NC3(C)CC3)c2c1C(=O)N1CCn2ccnc2C1 [Example 269, 5-{5H,6H,7H,8H-Imidazo[1,2-a]pyrazine-7-carbonyl}-6-methyl-N-(1-methylcyclopropyl)furo[2,3-d]pyrimidin-4-amine] | 10 to 100 nM
9 | Cc1oc2ncnc(NC3(C)CC3)c2c1C(=O)NC(C)c1ncco1 (stereo not shown) [Example 749, 6-Methyl-4-[(1-methylcyclopropyl)amino]-N-[1-(1,3-oxazol-2-yl)ethyl]furo[2,3-d]pyrimidine-5-carboxamide] | 100 to 1000 nM
10 | Cc1oc2ncnc(NC3(C)CC3)c2c1C(=O)NCc1cc(C(N)=O)on1 [Example 328, 3-[({6-Methyl-4-[(1-methylcyclopropyl)amino]furo[2,3-d]pyrimidin-5-yl}formamido)methyl]-1,2-oxazole-5-carboxamide] | 10 to 100 nM
11 | CNC(=O)c1c(C)oc2ncnc(NC3(C)CC3)c12 [Example 80, N,6-Dimethyl-4-[(1-methylcyclopropyl)amino]furo[2,3-d]pyrimidine-5-carboxamide] | 100 to 1000 nM
12 | Cc1oc2ncnc(NC3(C)CC3)c2c1C(=O)NCCCc1nc2cc(F)ccc2[nH]1 [Example 568, N-[3-(5-Fluoro-1H-1,3-benzodiazol-2-yl)propyl]-6-methyl-4-[(1-methylcyclopropyl)amino]furo[2,3-d]pyrimidine-5-carboxamide] | 10 to 100 nM
13 | Cc1oc2ncnc(NC3(C)CC3)c2c1C(=O)N1CCc2ccccc2C1 [Example 233, 6-Methyl-N-(1-methylcyclopropyl)-5-(1,2,3,4-tetrahydroisoquinoline-2-carbonyl)furo[2,3-d]pyrimidin-4-amine] | 10 to 100 nM
14 | Cc1oc2ncnc(NC3(C)CC3)c2c1C(=O)NCC1CCCCC1 [Example 192, N-(Cyclohexylmethyl)-6-methyl-4-[(1-methylcyclopropyl)amino]furo[2,3-d]pyrimidine-5-carboxamide] | 10 to 100 nM
15 | Cc1oc2ncnc(NC3(C)CC3)c2c1C(=O)N1CCC(c2cncc(F)c2)C1 (stereo not shown) [Example 339, 5-[3-(5-Fluoropyridin-3-yl)pyrrolidine-1-carbonyl]-6-methyl-N-(1-methylcyclopropyl)furo[2,3-d]pyrimidin-4-amine] | 10 to 100 nM
16 | Cc1cc(CNC(=O)c2c(C)oc3ncnc(NC4(C)CC4)c23)on1 [Example 319, 6-Methyl-N-[(3-methyl-1,2-oxazol-5-yl)methyl]-4-[(1-methylcyclopropyl)amino]furo[2,3-d]pyrimidine-5-carboxamide] | 10 to 100 nM
17 | Cc1oc2ncnc(NC3(C)CC3)c2c1C(=O)N1CCC(c2ncn(C)n2)CC1 [Example 777, 6-Methyl-5-[4-(1-methyl-1H-1,2,4-triazol-3-yl)piperidine-1-carbonyl]-N-(1-methylcyclopropyl)furo[2,3-d]pyrimidin-4-amine] | 10 to 100 nM
18 | Cc1oc2ncnc(NC3(C)CC3)c2c1C(=O)NCc1cnc(Cl)nc1 [Example 313, N-[(2-Chloropyrimidin-5-yl)methyl]-6-methyl-4-[(1-methylcyclopropyl)amino]furo[2,3-d]pyrimidine-5-carboxamide] | 10 to 100 nM
19 | Cc1oc2ncnc(NC3(C)CC3)c2c1C(=O)N1CCn2cc(C(F)(F)F)nc2C1 [Example 623, 6-Methyl-N-(1-methylcyclopropyl)-5-[2-(trifluoromethyl)-5H,6H,7H,8H-imidazo[1,2-a]pyrazine-7-carbonyl]furo[2,3-d]pyrimidin-4-amine] | 10 to 100 nM
20 | Cc1oc2ncnc(NC3(C)CC3)c2c1C(=O)NCCc1ccccc1 [Example 195, 6-Methyl-4-[(1-methylcyclopropyl)amino]-N-(2-phenylethyl)furo[2,3-d]pyrimidine-5-carboxamide] | 10 to 100 nM
21 | COc1cccc(OC2CN(C(=O)c3c(C)oc4ncnc(NC5(C)CC5)c34)C2)c1 [Example 590, 5-[3-(3-Methoxyphenoxy)azetidine-1-carbonyl]-6-methyl-N-(1-methylcyclopropyl)furo[2,3-d]pyrimidin-4-amine] | < 10 nM
22 | Cc1cnn(C(=O)c2c(C)oc3ncnc(NC4(C)CC4)c23)c1 [Example 408, 6-Methyl-5-(4-methyl-1H-pyrazole-1-carbonyl)-N-(1-methylcyclopropyl)furo[2,3-d]pyrimidin-4-amine] | 100 to 1000 nM
23 | Cc1nc(CNC(=O)c2c(C)oc3ncnc(NC4(C)CC4)c23)c(C)o1 [Example 112, N-[(Dimethyl-1,3-oxazol-4-yl)methyl]-6-methyl-4-[(1-methylcyclopropyl)amino]furo[2,3-d]pyrimidine-5-carboxamide] | 10 to 100 nM
24 | Cc1oc2ncnc(NC3(C)CC3)c2c1C(=O)N1CCC2(C1)OCc1ccccc12 (stereo not shown) [Example 380, 6-Methyl-N-(1-methylcyclopropyl)-5-(f{3H-spiro[2-benzofuran-1,3′-pyrrolidine]-1′-yl}carbonyl)furo[2,3-d]pyrimidin-4-amine] | 10 to 100 nM
25 | Cc1cn(C)nc1NC(=O)c1c(C)oc2ncnc(NC3(C)CC3)c12 [Example 432, N-(1,4-Dimethyl-1H-pyrazol-3-yl)-6-methyl-4-[(1-methylcyclopropyl)amino]furo[2,3-d]pyrimidine-5-carboxamide] | 10 to 100 nM
26 | COc1cccc(CNC(=O)c2c(C)oc3ncnc(NC4(C)CC4)c23)c1 [Example 246, N-[(3-Methoxyphenyl)methyl]-6-methyl-4-[(1-methylcyclopropyl)amino]furo[2,3-d]pyrimidine-5-carboxamide] | 10 to 100 nM
27 | Cc1oc2ncnc(NC3(C)CC3)c2c1C(=O)N1CCc2cccc(O)c2C1 [Example 331, 2-{6-Methyl-4-[(1-methylcyclopropyl)amino]furo[2,3-d]pyrimidine-5-carbonyl}-1,2,3,4-tetrahydroisoquinolin-8-ol] | 10 to 100 nM
28 | Cc1ncc(CNC(=O)c2c(C)oc3ncnc(NC4(C)CC4)c23)c(=O)[nH]1 [Example 673, 6-Methyl-N-[(2-methyl-6-oxo-1,6-dihydropyrimidin-5-yl)methyl]-4-[(1-methylcyclopropyl)amino]furo[2,3-d]pyrimidine-5-carboxamide] | 10 to 100 nM
29 | COc1ccc(CC2(NC(=O)c3c(C)oc4ncnc(NC5(C)CC5)c34)CC2)cc1 [Example 371, N-{1-[(4-Methoxyphenyl)methyl]cyclopropyl}-6-methyl-4-[(1-methylcyclopropyl)amino]furo[2,3-d]pyrimidine-5-carboxamide] | 10 to 100 nM
30 | Cc1oc2ncnc(NC3(C)CC3)c2c1C(=O)NCCCn1ccnc1 [Example 220, N-[3-(1H-Imidazol-1-yl)propyl]-6-methyl-4-[(1-methylcyclopropyl)amino]furo[2,3-d]pyrimidine-5-carboxamide] | 10 to 100 nM
31 | CNc1ncnc2c1CCN(C(=O)c1c(C)oc3ncnc(NC4(C)CC4)c13)C2 [Example 792, 6-Methyl-5-[4-(methylamino)-5H,6H,7H,8H-pyrido[3,4-d]pyrimidine-7-carbonyl]-N-(1-methylcyclopropyl)furo[2,3-d]pyrimidin-4-amine] | 10 to 100 nM
32 | Cc1oc2ncnc(NC3(C)CC3)c2c1C(=O)N1CCc2c(ncn(CF)c2=O)C1 [Example 16, 3-(Fluoromethyl)-7-{6-methyl-4-[(1-methylcyclopropyl)amino]furo[2,3-d]pyrimidine-5-carbonyl}-3H,4H,5H,6H,7H,8H-pyrido[3,4-d]pyrimidin-4-one] | 10 to 100 nM
33 | Cc1oc2ncnc(NC3(C)CC3)c2c1C(=O)N1CCN(c2cncnc2)CC1 [Example 381, 6-Methyl-N-(1-methylcyclopropyl)-5-[4-(pyrimidin-5-yl)piperazine-1-carbonyl]furo[2,3-d]pyrimidin-4-amine] | 10 to 100 nM
34 | Cc1nn(C)c(C)c1NC(=O)c1c(C)oc2ncnc(NC3(C)CC3)c12 [Example 418, 6-Methyl-4-[(1-methylcyclopropyl)amino]-N-(trimethyl-1H-pyrazol-4-yl)furo[2,3-d]pyrimidine-5-carboxamide] | 10 to 100 nM
